Assay results from PMC6848974 (Science translational medicine, 2019).
pEC50: −log10 of the molar value. “Also recorded” adds a separate entry of the source.

Assays:
PK and PD = type: in vivo; details: ferrets
[1] = Plasma PK in cynomolgus macaques; type: in vivo; details: non-human primates
[2] = tested on: ferret lung nuclear (TNFα) and mitochondrial (COX15) mRNAs; details: in vivo, po, 100 mg/kg
[3] = tested on: A/Wisconsin/67/2005 (H3N2); parameters: species or system ferrets; details: in vivo
[4] = tested on: A/California/07/2009 (H1N1); parameters: species or system ferrets; details: in vivo
[5] = PK of NHC and EIDD-2801 in mice
[6] = tested on: well-differentiated human airway epithelia
Ca/09 = assay: cells; type: cell-based, human airway epithelia
[7] = tested on: HBTEC nuclear (SDH-A) and mitochondrial (COX1) mRNAs; assay: Transitions in host mRNA of HBTECs; details: 72 hours
in vitro = details: human
[8] = tested on: Ca/09, Wi/05, and B/Brisbane/60/2008; assay: microbe, parasite or virus in culture; type: cell-based, human airway epithelia
[9] = tested on: HBTECs mitochondrial (COX1) and nuclear (SDH-A) protein expression

CC(C)C(=O)OC[C@H]1O[C@@H](n2ccc(NO)nc2=O)[C@H](O)[C@@H]1O [EIDD-2801]
oral bioavailability compared to NHC (PK and PD; oral): increased oral bioavailability
tolerability (phenotypically appreciable adverse effects) (PK and PD; seven b.i.d. oral doses at 100 mg/kg): well tolerated
drug accumulation on repeat dosing (PK and PD; single versus multi-dose oral b.i.d.): does not lead to drug accumulation
oral bioavailability compared to NHC [1]: increased oral bioavailability
transition frequencies in nuclear and mitochondrial message versus vehicle [2]: indistinguishable
reduction of shed viral titers [3]: ≥ 4 orders of magnitude
shed virus load in nasal lavages [3]: at or below limit of detection
tissue (nasal turbinate) viral titers [3]: undetectable
cellular infiltrates in nasal cavities and blood lymphocyte counts [4]: remained unchanged
duration of fever [4]: shortened; also recorded: significantly (P <0.0001 and P = 0.03, respectively) reduced
reduction of shed viral titers [4]: ≥ 4 orders of magnitude
reduction of tissue (nasal turbinate) viral titers [4]: more than 4 orders of magnitude
relative cytokine and CXCL10 induction [4]: significantly lowered
shed virus load [4]: dropped by several orders of magnitude; also recorded: significantly (P <0.0001 and P = 0.03, respectively) reduced
shed virus load in nasal lavages [4]: at or below limit of detection
time at which fever started to decline [4]: approximately 1.5 days after infection
viral titers in bronchioalveolar lavages and lung tissue [4]: significantly reduced
virus burden in nasal turbinates and tracheas [4]: reduction of several orders of magnitude
virus in lung sections by immunohistochemistry [4]: immunohistochemically undetectable
hydrolysis in vivo after absorption (only free NHC detected in plasma) [5]: efficiently hydrolyzed

O=c1nc(NO)ccn1[C@@H]1O[C@H](CO)[C@@H](O)[C@H]1O [NHC, N^4-hydroxycytidine]
cytotoxicity threshold [6]: ~50 µM
apically released virus load (Ca/09): significantly reduced
off-target effects (transition mutations in host mRNAs) ([7]; 1.8 μM NHC): no off-target effects
transition mutations in host mRNAs ([7]; higher NHC concentrations (50 μM, 10 μM)): increased C to U and U to C transitions
CC50 (in vitro): 137000 nM
EC50 in human epithelia lower than in immortalized cell lines [8]: 25-50 fold
EC99 [8]: 0.15 to 0.25 µM
antiviral effect in infected differentiated epithelia [8]: sterilizing
robust efficacy threshold [8]: approximately 0.2 μM
pEC50 ([8]; Influenza A virus, in Homo sapiens, 72 h): 7.10 to 7.22
impact on mitochondrial versus nuclear protein expression [9]: significantly greater

CCC(CC)O[C@@H]1C=C(C(=O)O)C[C@H](N)[C@H]1NC(C)=O [oseltamivir carboxylate, reference compound]
pEC50 (Ca/09; Homo sapiens, 72 h): 6.72

CCOC(=O)C1=C[C@@H](OC(CC)CC)[C@H](NC(C)=O)[C@@H](N)C1 [oseltamivir, oseltamivir-phosphate, reference compound]
bronchiolar inflammation in lung sections versus EIDD-2801 therapeutic groups [4]: more pronounced
inhibitory effect on shed virus titer [4]: no significant (P ≥0.13) inhibitory effect
